pEC50, pIC50, pKi: −log10 of the molar value.
Experiments:
DM Aur A (Dm AK-A) = DM Aur A (Dm AK-A) (Drosophila melanogaster, UniProt Q9VGF9); assay: Dm aurora A kinase assay (DM Aur A / Dm AK-A); type: biochemical; settings: for pKi: in vitro kinase assay; for pIC50: values without asterisk (DM aurora A)
Protocol: (§1) The compounds of the invention above were investigated for their ability to inhibit the enzymatic activity of various protein kinases. This was achieved by measurement of incorporation of radioactive phosphate from ATP into appropriate polypeptide substrates. Recombinant protein kinases and kinase complexes were produced or obtained commercially. Assays were performed using 96-well plates and appropriate assay buffers (typically 25 mM β-glycerophosphate, 20 mM MOPS, 5 mM EGTA, 1 mM DTT, 1 mM […], pH 7.4), into which were added 2-4 μg of active enzyme with appropriate substrates. The reactions were initiated by addition of Mg/ATP mix (15 mM MgCl2+100 μM ATP with 30-50 kBq per well of [γ-^32P]-ATP) and mixtures incubated as required at 30° C. Reactions were stopped on ice, followed by filtration through p81 filterplates or GF/C filterplates (Whatman Polyfiltronics, Kent, UK). After washing 3 times with 75 mM aq orthophosphoric acid, plates were dried, scintillant added and incorporated radioactivity measured in a scintillation counter (TopCount, Packard Instruments, Pangbourne, Berks, UK). Compounds for kinase assay were made up as 10 mM stocks in DMSO and diluted into 10% DMSO in assay buffer. Data was analysed using curve-fitting software (GraphPad Prism version 3.00 for Windows, GraphPad Software, San Diego Calif. USA) to determine IC50 values (concentration of test compound which inhibits kinase activity by 50%).

CDK2/E = CDK2/E (Homo sapiens, UniProt P24941); assay: CDK2/E in vitro kinase assay; type: biochemical
Protocol: as §1

GSK3 (GSK-3β) = GSK3 (GSK-3β) (Oryctolagus cuniculus, UniProt A0A5F9DUX8); assay: GSK-3 kinase assay; type: biochemical, rabbit; settings: in vitro kinase assay
Chain of GSK3 (GSK-3β) (A0A5F9DUX8 entry or part of it): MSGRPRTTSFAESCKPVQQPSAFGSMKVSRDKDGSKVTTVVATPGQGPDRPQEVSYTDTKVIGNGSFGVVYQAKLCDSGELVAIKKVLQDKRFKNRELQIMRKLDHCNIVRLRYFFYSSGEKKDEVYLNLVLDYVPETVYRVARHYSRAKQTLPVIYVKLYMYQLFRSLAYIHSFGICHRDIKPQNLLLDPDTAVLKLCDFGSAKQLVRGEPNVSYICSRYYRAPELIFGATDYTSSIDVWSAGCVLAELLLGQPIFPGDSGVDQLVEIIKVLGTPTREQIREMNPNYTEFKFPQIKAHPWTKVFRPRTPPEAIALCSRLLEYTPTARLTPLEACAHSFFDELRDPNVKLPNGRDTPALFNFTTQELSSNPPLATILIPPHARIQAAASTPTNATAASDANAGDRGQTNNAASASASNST
Protocol: GSK-3 was obtained from New England Biolabs (UK) Ltd., Hitchin, Herts. The recombinant enzyme was isolated from a strain of E. coli that carries a clone expressing GSK-3β derived from a rabbit skeletal muscle cDNA library [Wang, Q. M.; Fiol, C. J.; DePaoli-Roach, A. A.; Roach, P. J. J. Biol. Chem., 1994, 269, 14566]. Inhibition of GSK-3 function was assessed by measurement of phosphorylation of CREB phosphopeptide KRREILSRRPphosphoSYR in the presence of test compounds. Using a 96-well assay format, GSK3 (7.5 U) was incubated for 30 min at 30° C. in a total volume of 25 μL in 20 mM MOPS pH 7.2, 25 mM β-glycerophosphate, 5 mM EGTA, 1 mM DTT, 1 mM […], 40 μM CREB peptide, 15 mM MgCl2 and 100 μM ATP (containing 0.25 μCi [γ-^32P]-ATP) in the presence of varying concentrations of test compound. The samples were transferred to 96-well p81 filter plates (Whatman Polyfiltronics, Kent, UK), and the plates were washed 4 times with 200 μL/well of 75 mM aq orthophosphoric acid. Scintillation liquid (50 μL) was added to each well, and incorporated radioactivity for each sample was determined using a scintillation counter (TopCount, Packard Instruments, Pangboume, Berks, UK).

[1] = tested on: Glycogen synthase activation in HEK293 cells; assay: Glycogen synthase activation in HEK293 cells; type: cell-based; settings: Homo sapiens, 1.5 h, 90 minutes treatment
Protocol: (§2) HEK293 cells, mouse adipocytes or rat myotubes were treated in 10 cm Petri dishes with different concentrations of GSK3 inhibitors for 90 minutes. At the end of the treatment period the cells were washed and scraped in ice cold PBS buffer supplemented with 20 mM NaF. The cells were pelleted by centrifugation and lysed in 300 μl buffer-50 mM HEPES pH 7.5, 10 mM EDTA, 100 mM NaF, 5 mM DTT, protease inhibitor cocktail (Sigma). After incubation for 30 min on ice the samples were cleared by centrifugation. The activity of glycogen synthase was determined in the soluble fraction at two different concentrations of […]-low (0.1 mM) and high (10 mM). The reaction was carried out for 30 min in a buffer—50 mM Tris pH 7.8, 20 mM EDTA, 25 mM NaF, S mM DTT. The reaction mixture (total volume of 90 μl) consisted as well of 1% glycogen, 0.3 mM UDP-glucose and 0.06 μCi ^14C-UDP-glucose. Reaction was stopped by transfer of 70 μl to a GFC 96-well filter plate, containing 140 μl 100% ethanol an the glycogen was allowed to precipitate for 1 h at 4° C. The wells were washed 2 times with 200 μl 66% ethanol and than let to dry. Subsequently, 100 μl of scintillation liquid were added, and plates were sealed and counted in a Packard Topcounter. Glycogen synthase activation was calculated as the ratio between the incorporation of labelled ^14C-UDP-glucose in glycogen at low and high concentration of […] (fractional velocity).

[2] = tested on: Glycogen synthase activation in mouse adipocytes (3T3-L1); assay: Glycogen synthase activation in mouse adipocytes (3T3-L1); type: cell-based; settings: 1.5 h; 3T3-L1 mouse adipocytes, 90 minutes treatment
Protocol: 3T3-L1 mouse pre-adipocytes were grown in DMEM supplemented with 10% FCS and pen/strep until fully confluent. Cell differentiation was initiated by the addition of 0.5 mM IBMX (2-isobutyl-1-methylxanthine), 0.25 μM Dexamethasone and 1 μg/ml insulin into the growth media. The differentiation media was replaced after 4 days and 7 days after the initiation of differentiation the cells were grown for additional 3 days in DMEM, 10% FCS and pen/strep.
as §2

[3] = tested on: Glycogen synthase activation in rat myotubes (L6.G8.C5); assay: Glycogen synthase activation in rat myotubes (L6.G8.C5); type: cell-based; settings: Myotube, 1.5 h, 90 minutes treatment
Protocol: Rat myotubes were differentiated from L6.G8.C5 myoblasts, which were grown in DMEM, 10% FCS and pen/strep until confluent. The media was then removed, cells washed with PBS and differentiation media containing minimal essential media eagles (alpha modified) supplemented with 2% FCS and pen/strep. The cells were cultured for 3-4 days until >90% of cells have formed multinucleated myotubes. The differentiated cells were then used for determination of glycogen synthase activation after treatment with GSK3 inhibitors.
as §2

[4] = tested on: PEPCK gene expression in HEPG2 cells; assay: PEPCK gene expression in HEPG2 cells - QPCR assay; type: cell-based; settings: HEPG2, Dex/cAMP +, percentage of the dexametasone-induced stimulation
Protocol: PEPCK gene expression was studied in HEPG2 (hepatocarcinoma) cells, seeded in 6-well plate at […] cells per well. The cells were serum starved for 20 hours before treatment with dexamethasone/cAMP (stimulator of PEPCK gene expression) in the presence or absence of insulin or GSK3 inhibitors. After 3 hours treatment the cells were harvested, lysed and RNA extracted using mini RNeasy spin column (Quiagen). The primer set COD2063/COD2064 (350 bp) was used for PEPCK gene. The one step RT-PCR was carried out using the Lightcycler-RNA Master SYBR Green 1 Kit. The qPCR analysis calculates the number of the PCR cycles required for the PCR product amplification to reach logarithmic phase. QPCR for a housekeeping gene—28S—was used for normalisation. PEPCK is a key enzyme in gluconeogenesis in the liver and it is known be negatively regulated by insulin via inhibition of GSK3. The effect of GSK3 inhibitors on PEPCK gene expression was studied in HEPG2 (hepatocarcinoma) cells treated with dexametasone/cAMP (a positive regulator of PEPCK gene expression) in the presence or absence of insulin or GSK3 inhibitors.

Chain of DM Aur A (Dm AK-A) (Q9VGF9 entry or part of it): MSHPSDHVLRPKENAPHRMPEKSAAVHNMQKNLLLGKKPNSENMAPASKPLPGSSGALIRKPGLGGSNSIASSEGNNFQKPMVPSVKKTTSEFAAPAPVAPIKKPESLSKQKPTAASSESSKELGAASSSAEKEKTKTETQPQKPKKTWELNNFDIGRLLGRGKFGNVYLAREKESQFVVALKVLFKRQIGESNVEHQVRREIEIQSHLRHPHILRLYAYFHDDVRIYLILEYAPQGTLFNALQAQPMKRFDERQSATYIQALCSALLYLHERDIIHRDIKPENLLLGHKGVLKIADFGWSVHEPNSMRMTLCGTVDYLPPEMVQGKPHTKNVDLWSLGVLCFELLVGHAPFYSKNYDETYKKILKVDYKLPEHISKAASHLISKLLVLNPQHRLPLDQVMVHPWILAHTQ

pKi (DM Aur A (Dm AK-A)) | pIC50 (DM Aur A (Dm AK-A)) | pKi (CDK2/E) | pKi (GSK3 (GSK-3β)) | Molecule | pEC50 [1] | pEC50 [2] | pEC50 [3] | % PEPCK activity ([4]; concentration 1 uM) [%] | % PEPCK activity ([4]; concentration 10 uM) [%] | % PEPCK activity ([4]; concentration 0.1 uM) [%]
6.75 | 6.34 | 6.73 | 8.30 | COc1ccc(Nc2nccc(-c3c(C)[nH]c(C#N)c3C)n2)cn1 [Compound 28] | 5.18 | 5.10 | 5.05 | 48.4 ± 7.3 | 11.7 ± 1.3 | 
6.79 | 6.38 | 6.42 | 8.52 | CCNS(=O)(=O)c1cccc(Nc2nccc(-c3c(C)[nH]c(C#N)c3C)n2)c1 [Compound 32] | 5.39 | 5.68 | 5.30 |  |  | 
 |  |  |  | Insulin: insulin, comparator known to negatively regulate PEPCK via inhibition of GSK3 |  |  |  |  |  | 67.5 ± 9.0
6.17 | 6.06 | 6.71 | 8.52 | Cc1[nH]c(C#N)c(C)c1-c1ccnc(Nc2ccc(Cl)nc2)n1 [Compound 30] | 5.66 | 5.37 | 5.64 | 22.8 ± 12.1 | 16.2 ± 3.8 | 
 |  | 6.92 | 8.30 | Cc1[nH]c(C#N)c(C)c1-c1ccnc(Nc2ccc(N(C)C)c([N+](=O)[O-])c2)n1 [Compound 18] | 5.82 | 5.39 |  |  |  | 

Molecule | pKi (DM Aur A (Dm AK-A)) | pIC50 (DM Aur A (Dm AK-A)) | pKi (CDK2/E) | pKi (GSK3 (GSK-3β)) | pEC50 [1] | pEC50 [2] | pEC50 [3] | % PEPCK activity ([4]; concentration 1 uM) [%] | % PEPCK activity ([4]; concentration 10 uM) [%] | % PEPCK activity ([4]; concentration 0.1 uM) [%]
Cc1[nH]c([N+](=O)[O-])c(C)c1-c1ccnc(Nc2ccc(N(C)C)c([N+](=O)[O-])c2)n1 [Compound 19] |  |  | 7.39 | 8.40 | 6.15 | 5.25 | 5.20 | 72.9 ± 9.06 | 45.4 ± 1.9 | 
